According to paper PMC7164518 (Science (New York, N.y.), 2020):
Values after ≈ are worked out from the molar mass of the structure shown. Like-named read-outs stand apart in the source and are kept apart here.

What was measured:
[1] = Pharmacokinetics in CD-1 mice, subcutaneous route; type: in vivo; settings: for half-life / Cmax / MRT: plasma
[2] = In vitro kinetic plasma solubility; type: physicochemical; settings: plasma or biological fluid, kinetic from dmso stock
Thermodynamic solubility = type: physicochemical; settings: thermodynamic from solid
[3] = Binding to mouse plasma protein; type: in vitro ADME
[4] = system: Middle East respiratory syndrome–coronavirus (MERS-CoV); settings: Huh7 cells; read-out: EC50 against MERS-CoV; cited from earlier work
SARS-CoV = settings: various cell lines; cited from earlier work
enteroviruses = settings: various cell lines; cited from earlier work
[5] = human microsomes
in vitro [6] = settings: mouse, microsomes
in vitro [7] = settings: human, microsomes
MERS-CoV M^pro = MERS-CoV M^pro (Middle East respiratory syndrome-related coronavirus, UniProt K9N7C7); assay: biochemical
SARS-CoV replicon = assay: microbe, parasite or virus in culture; type: cell-based; settings: Severe acute respiratory syndrome coronavirus, read-out: EC50 inhibition of RNA replication in SARS-CoV replicon
SARS-CoV-2 = SARS-CoV-2 replication in human Calu-3 lung cells (viral RNA by qPCR); type: cell-based; settings: MOI 0.05
Description: (A) Calu-3 cells were infected with SARS-CoV-2 using a multiplicity of infection (MOI) of 0.05. […] DMSO was used as vehicle control (black bar). Total RNA was isolated from cell lysates, and viral RNA content was analyzed by quantitative polymerase chain reaction. Data are means ± SD of two biological experiments with two technical replicates each.

[8] = Binding to human plasma proteins; type: in vitro ADME
in vivo = settings: CD-1, mouse, lung, inhaled, 3 mg kg^−1
SARS-CoV-2 M^pro = SARS-CoV-2 M^pro (Severe acute respiratory syndrome coronavirus 2, UniProt P0DTD1); assay: Inhibition of purified recombinant SARS-CoV-2 Mpro; type: biochemical; settings: 14b relative to 13b

Chain of MERS-CoV M^pro (K9N7C7 3248-3553 limits assumed): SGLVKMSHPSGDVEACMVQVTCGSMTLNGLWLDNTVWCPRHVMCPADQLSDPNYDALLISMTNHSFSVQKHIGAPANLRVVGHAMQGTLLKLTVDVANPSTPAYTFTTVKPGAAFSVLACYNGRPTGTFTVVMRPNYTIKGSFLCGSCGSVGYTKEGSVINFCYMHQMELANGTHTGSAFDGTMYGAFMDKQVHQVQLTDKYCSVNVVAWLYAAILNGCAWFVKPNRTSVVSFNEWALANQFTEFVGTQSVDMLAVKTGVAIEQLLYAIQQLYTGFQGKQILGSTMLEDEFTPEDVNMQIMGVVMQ

Question: Which half-life ([1]; CD-1, mouse, mice) does the source give for `O=C(/C=C/c1ccccc1)N[C@@H](CC1CCCCC1)C(=O)N[C@@H](C[C@@H]1CCNC1=O)C(=O)C(=O)NCc1ccccc1` [Compound 11r, reference compound] here?
Answer: 0.3 h

Question: And the solubility kinetic [2]?
Answer: 6 µM (≈ 3.44 µg/mL)

Question: And the solubility thermodynamic (Thermodynamic solubility)?
Answer: 41 µM (≈ 23.5 µg/mL)

Question: And the “binding to mouse plasma protein” value [3]?
Answer: 99%

Question: What about the EC50 [4] of the same compound?
Answer: 0.0004 µM

Question: And the “EC50 values against SARS-CoV” value (SARS-CoV)?
Answer: low-μM

Question: And the “EC50 values against a whole range of enteroviruses” value (enteroviruses)?
Answer: low-μM

Question: For `CC(C)(C)OC(=O)Nc1cccn([C@@H](CC2CCCCC2)C(=O)N[C@@H](C[C@@H]2CCNC2=O)C(=O)C(=O)NC2CC2)c1=O` [Compound 13a, tert-butyl (1-((S)-3-cyclohexyl-1-(((S)-4-(cyclopropylamino)-3,4-dioxo-1-((S)-2-oxopyrrolidin-3-yl)butan-2-yl)amino)-1-oxopropan-2-yl)-2-oxo-1,2-dihydropyridin-3-yl)carbamate], which half-life ([1]; CD-1, mouse, mice) is on record?
Answer: 1 h

Question: What about the “time compound stayed in plasma” value ([1]; CD-1 mice, 20 mg/kg) of the same compound?
Answer: up to 4 hours

Question: And the “time compound was excreted via urine” value ([1]; CD-1 mice, 20 mg/kg)?
Answer: up to 24 hours

Question: And the concentration at 24 hours ([1]; mouse, bronchio-alveolar lavage fluid (BALF), sc, CD-1 mice, 20 mg/kg, read-out: concentration in bronchio-alveolar lavage fluid (BALF) at 24 hours)?
Answer: 52.7 ng/mL

Question: What about the concentration at 24 hours ([1]; mouse, lung, sc, CD-1 mice, 20 mg/kg, read-out: concentration in lung tissue at 24 hours) of the same compound?
Answer: 135 ng/g

Question: What about the Cmax ([1]; mouse, sc, CD-1 mice, 20 mg/kg, read-out: maximum plasma concentration (Cmax)) of the same compound?
Answer: 334 ng/mL

Question: What about the MRT ([1]; mouse, sc, CD-1 mice, 20 mg/kg, read-out: mean residence time) of the same compound?
Answer: ~1.6 h

Question: And the solubility kinetic [2]?
Answer: 112 µM (≈ 65.6 µg/mL)

Question: And the solubility thermodynamic (Thermodynamic solubility)?
Answer: 530 µM (≈ 310 µg/mL)

Question: And the “binding to mouse plasma protein” value [3]?
Answer: 97%

Question: And the “residual compound remaining metabolically stable after 30 min” value [5]?
Answer: ~60%

Question: And the microsomal CLint (in vitro [6])?
Answer: 32 µL/min/mg

Question: What about the microsomal CLint (in vitro [7]) of the same compound?
Answer: 21 µL/min/mg

Question: Which IC50 (MERS-CoV M^pro) does the source give for `CC(C)(C)OC(=O)Nc1cccn([C@@H](CC2CC2)C(=O)N[C@@H](C[C@@H]2CCNC2=O)C(=O)C(=O)NCc2ccccc2)c1=O` [Compound 13b] here?
Answer: 0.58 ± 0.22 µM

Question: And the EC50 (SARS-CoV replicon)?
Answer: 1.75 ± 0.25 µM

Question: What about the EC50 (SARS-CoV-2; Severe acute respiratory syndrome coronavirus 2, Calu-3, viral RNA by qPCR, read-out: EC50 in human Calu-3 cells infected with SARS-CoV-2) of the same compound?
Answer: 4 to 5 µM

Question: And the “Cmax as percent of the Cmax detected for 13a” value ([1]; 13b 3 mg kg^−1 vs 13a 20 mg/kg)?
Answer: around 37%

Question: What about the concentration at 4 hours ([1]; mouse, lung, sc, CD-1 mice, 3 mg kg^−1, 4 hours, read-out: lung tissue level after 4 hours) of the same compound?
Answer: ~13 ng/g

Question: What about the half-life ([1]; mouse, sc, CD-1 mice, 3 mg kg^−1) of the same compound?
Answer: 1.8 h

Question: And the Cmax ([1]; mouse, sc, CD-1 mice, 3 mg kg^−1, read-out: maximum plasma concentration (Cmax))?
Answer: 126 ng/mL

Question: And the MRT ([1]; mouse, sc, CD-1 mice, 3 mg kg^−1, read-out: mean residence time)?
Answer: 2.7 h

Question: What about the “binding to human plasma proteins” value [8] of the same compound?
Answer: 90%

Question: And the concentration at 24 hours (in vivo)?
Answer: 33 ng/g

Question: What does the source list for `Nc1cccn([C@@H](CC2CC2)C(=O)N[C@@H](C[C@@H]2CCNC2=O)C(=O)C(=O)NCc2ccccc2)c1=O` [Compound 14b]?
Answer: weakening of inhibitory potency on removing the Boc group (factor) (SARS-CoV-2 M^pro): ~ 2; activity in human Calu-3 cells infected with SARS-CoV-2 (SARS-CoV-2; 5, 10, 20 or 40 μM): almost inactive
